In patent publication US8592423B2, “Inhibitors of PDE10” (Bristol-Myers Squibb Company, priority 2011, dated 2013) one finds IC50 data, which are given here for 6 compounds.

Sequence of PDE10 (Q9Y233 whole entry): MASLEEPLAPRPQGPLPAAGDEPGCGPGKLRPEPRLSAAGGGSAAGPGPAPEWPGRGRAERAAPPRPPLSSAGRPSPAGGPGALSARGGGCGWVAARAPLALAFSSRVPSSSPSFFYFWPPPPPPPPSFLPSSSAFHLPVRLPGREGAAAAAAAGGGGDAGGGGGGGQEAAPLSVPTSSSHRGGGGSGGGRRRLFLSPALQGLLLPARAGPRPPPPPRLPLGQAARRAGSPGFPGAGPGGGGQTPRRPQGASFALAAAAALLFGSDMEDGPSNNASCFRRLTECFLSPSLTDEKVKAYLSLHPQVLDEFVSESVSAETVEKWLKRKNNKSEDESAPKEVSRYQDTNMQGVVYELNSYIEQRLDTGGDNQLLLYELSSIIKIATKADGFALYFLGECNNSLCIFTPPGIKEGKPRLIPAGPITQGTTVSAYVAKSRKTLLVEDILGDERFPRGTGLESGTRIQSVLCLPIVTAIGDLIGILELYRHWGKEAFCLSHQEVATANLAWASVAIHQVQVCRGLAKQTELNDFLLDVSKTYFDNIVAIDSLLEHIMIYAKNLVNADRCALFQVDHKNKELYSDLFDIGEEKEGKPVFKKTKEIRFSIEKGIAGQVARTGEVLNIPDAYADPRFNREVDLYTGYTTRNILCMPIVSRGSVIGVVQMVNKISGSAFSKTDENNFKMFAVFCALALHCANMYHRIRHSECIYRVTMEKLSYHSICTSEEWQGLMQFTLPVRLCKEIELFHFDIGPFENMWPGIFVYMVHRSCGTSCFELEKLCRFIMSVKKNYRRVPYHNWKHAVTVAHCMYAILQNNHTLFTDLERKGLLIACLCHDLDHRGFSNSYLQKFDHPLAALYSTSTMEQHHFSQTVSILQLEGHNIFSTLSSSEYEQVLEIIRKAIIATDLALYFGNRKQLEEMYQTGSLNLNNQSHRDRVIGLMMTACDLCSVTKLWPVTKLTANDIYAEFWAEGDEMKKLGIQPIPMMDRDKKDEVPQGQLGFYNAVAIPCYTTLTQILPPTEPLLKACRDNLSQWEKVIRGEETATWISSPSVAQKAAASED

The target of one experiment is PDE10 (Homo sapiens (Human), UniProt Q9Y233). In words: LE_PDE10A inhibition assay (SPA, cAMP hydrolysis). Format: biochemical. As to conditions: 3H-cAMP at Km 25 nM, read-out: IC50. The method, then:
LE_PDE10A Inhibition Assay:
The PDE10 inhibition assay in 384-well plates was conducted to identify substances for the inhibition of cyclic nucleotide hydrolysis by the PDE10 enzyme. […] PDE10 activity was measured using Scintillation Proximity Assay (SPA)-based methods. PDE10 catalyses the hydrolysis of the intracellular messenger adenosine […] (cAMP) to the non-cyclic adenosine 5′-monophosphate (AMP). The SPA assay was based upon the selective interaction of the tritiated product with yttrium oxide LEADseeker beads.
The assay buffer contained 25 mM HEPES pH 7.4, 2.5 mM Magnesium Chloride and 0.1% BSA. […] The reaction was terminated by adding 6 μL of 5 mg/mL of yttrium oxide LEADseeker beads. The beads were allowed to settle for 3 hours before plates were read in the LEEDSeaker for 6 minutes. The measured signal ccould be converted to activity relative to an […] control (100%). IC50 values were calculated by using in-house data software and IC50 values were generated by nonlinear regression analysis. (Bristol-Myers Squibb Company, Wallingford, Conn.).
As a reminder, the IC50 is the concentration needed to halve the response being measured. On to `Cc1ncc(C)n2nc(C3CC3c3nc(-c4ccccc4)cn3C)nc12` (racemic) [5,8-Dimethyl-2-(2-(1-methyl-4-phenyl-1H-imidazol-2-yl)cyclopropyl)-[1,2,4]triazolo[1,5-a]pyrazine], for which the IC50 worked out at 1.79 nM.

Consider `Cc1cc(C)n2nc(C3CC3c3nc(-c4ccccc4)cn3C)nc2n1` (stereo not drawn) [5,7-Dimethyl-2-(2-(1-methyl-4-phenyl-1H-imidazol-2-yl)cyclopropyl)-[1,2,4]-triazolo[1,5-a]pyrimidine], for which the IC50 turned out to be 14.5 nM.

With `CCCn1cc(-c2ccccc2)nc1C1CC1c1nc2c(C)ncc(C)n2n1` (stereo not drawn) [5,8-dimethyl-2-(2-(4-phenyl-1-propyl-1H-imidazol-2-yl)cyclopropyl)-[1,2,4]triazolo[1,5-a]pyrazine], the 50% inhibitory concentration (IC50) came to 6.65 nM.

The experiment is the same for the next values; noted with them: 3H-cAMP at Km 25 nM, read-out: Range (IC50).
As to `Cc1ncc(C)n2nc(C3CC3c3nc(-c4ccccc4)cn3C)nc12` (single isomer, unassigned) [drawing 16, 5,8-dimethyl-2-(2-(1-methyl-4-phenyl-1H-imidazol-2-yl)cyclopropyl)-[1,2,4]triazolo[1,5-a]pyrazine], the IC50 lay in the range of 0.8 to 5 nM.

For the compound `Cc1ncc(C)n2nc(C3CC3c3nc(-c4ccccc4)cn3C)nc12` (single isomer, unassigned) [drawing 17, 5,8-dimethyl-2-(2-(1-methyl-4-phenyl-1H-imidazol-2-yl)cyclopropyl)-[1,2,4]triazolo[1,5-a]pyrazine], the IC50 was 10.1 to 40 nM.

Consider `CCn1cc(-c2ccccc2)nc1C1CC1c1nc2c(C)ncc(C)n2n1` (stereo not drawn) [2-(2-(1-Ethyl-4-phenyl-1H-imidazol-2-yl)cyclopropyl)-5,8-dimethyl-[1,2,4]triazolo[1,5-a]pyrazine], for which the IC50 fell in the range of 5.1 to 10 nM.
